Source: patent US11807693B2 (priority 2014, dated 2023)
Starred links: 1 amine or outer side, 2 acyl side, 3 side chain; linkers in the order of their positions; H or OH if unused. Non-standard residues stand in square brackets, D forms with d. Residues, ends and D or L forms follow the SMILES beside them. No end group written: not given here. *: point of attachment. Oic = O=C(O)[C@@H]1C[C@@H]2CCCC[C@@H]2N1; Phe(4-Cl) = N[C@@H](Cc1ccc(Cl)cc1)C(=O)O; γGlu = O=C(O)[C@H](CCC(=O)[*:2])N[*:1]; NMeR = CN[C@@H](CCCNC(=N)N)C(=O)O; Palmitoyl = CCCCCCCCCCCCCCCC(=O)*; Tridecanoyl = CCCCCCCCCCCCC(=O)*; hArg = N=C(N)NCCCC[C@H](N)C(=O)O; Cha = N[C@@H](CC1CCCCC1)C(=O)O; Gly(N-CH2CH2OH) = O=C(O)CNCCO; Tle = CC(C)(C)[C@H](N)C(=O)O; αMeP = C[C@@]1(C(=O)O)CCCN1; β3hV = CC(C)[C@H](N)CC(=O)O; Pip = O=C(O)[C@@H]1CCCCN1; Nle = CCCC[C@H](N)C(=O)O; AEEA = NCCOCCOCC(=O)O; Aib = CC(C)(N)C(=O)O; Inp = O=C(O)C1CCNCC1

Key:
Assay type in all cases: in vitro ADME
[1] = In vitro stability in rat liver homogenate; conditions: tissue homogenate; for Stability at 4 hours (% Remaining) Liver: 5 μM
Method in brief: (§1)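 Peptide 5 μM final; rat plasma / liver homog. / kidney homog.; 37° C., 4 hr. Quench MeOH + IS, vortex 15 min RT, spin 5500 g 15 min; supernatant by HR LC-MS.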

[2] = In vitro stability in rat plasma; conditions: for Stability at 4 hours (% Remaining) Plasma: 5 μM
Method in brief: as §1

[3] = In vitro stability in rat kidney homogenate; conditions: rat, tissue homogenate; for Stability at 4 hours (% Remaining) Kidney: 5 μM
Procedure: Apelin peptides were spiked into rat plasma, liver homogenate, and kidney homogenate, which were obtained from commercial sources, to a final concentration of 5 μM. The samples were then incubated at 37° C. over a period of 4 hr. […] In a typical experiment, an aliquot of 100 μL of sample was taken from the incubation vial, followed by addition of 300 μL of MeOH containing internal standard. The quenched sample was centrifuged at 5500 g for 15 min after 15 min vortex in room temperature. The supernatant was then analyzed by high resolution LC-MS. […] In vitro plasma, […], and kidney stability results are shown below in Table 14.

remaining at 4 h, 5 μM [1] [%] | remaining at 4 h, 5 μM [2] [%] | remaining at 4 h, 5 μM [3] [%] | Compound | Stability at 4 hours (% Remaining) Liver [1] [% Remaining] | Stability at 4 hours (% Remaining) Plasma [2] [% Remaining] | Stability at 4 hours (% Remaining) Kidney [3] [% Remaining]
12 | 76 | 1 | CCCCCCCCCCCCC(=O)N[C@@H](CCC(=O)NCCOCCOCC(=O)NCCOCCOCC(=O)N[C@@H](CCCC)C(=O)N[C@@H](CCC(N)=O)C(=O)N[C@@H](CCCNC(=N)N)C(=O)N1CCC[C@H]1C(=O)N[C@@H](CCCCNC(=N)N)C(=O)N[C@@H](CC1CCCCC1)C(=O)N[C@@H](CO)C(=O)N[C@@H](Cc1c[nH]cn1)C(=O)N[C@@H](CCCCN)C(=O)NCC(=O)N1[C@H](C(=O)N[C@@H](CCCC)C(=O)N2CCC[C@H]2C(=O)N[C@@H](Cc2ccc(Cl)cc2)C(=O)O)C[C@@H]2CCCC[C@@H]21)C(=O)O [compound 338] ({Tridecanoyl-γGlu-AEEA-AEEA}-[Nle]QRP[hArg][Cha]SHKG[Oic][Nle]P[Phe(4-Cl)]-OH) | – | – | –
– | – | – | 110 (QRPRLSHKGPMPF; source: /note="N-term MerPr(10KmPEGacetamide)") [compound 110] | 61 | 36 | 27
– | – | – | 120 (QRP[NMeR][Cha]SHKG[Oic][Nle][Aib][Phe(4-Cl)]; not fully specified (N-terminus); ends and bridges not checked; also: 10K mPEG acetamide on N-terminal MerPr) [compound 120] | 61 | 68 | <1.0
34 | > 90 | 19 | CCCCCCCCCCCCC(=O)N[C@@H](CCC(=O)NCCOCCOCC(=O)NCCOCCOCC(=O)N[C@H](CCC(N)=O)C(=O)N[C@@H](CCCNC(=N)N)C(=O)N1CCC[C@@]1(C)C(=O)N[C@@H](CCCCNC(=N)N)C(=O)N[C@H](CC(=O)N[C@@H](CO)C(=O)N[C@@H](Cc1c[nH]cn1)C(=O)N[C@@H](CCCCN)C(=O)NCC(=O)N1[C@H](C(=O)N[C@@H](CCCC)C(=O)N2CCC[C@@]2(C)C(=O)N[C@@H](Cc2ccc(Cl)cc2)C(=O)O)C[C@@H]2CCCC[C@@H]21)C(C)C)C(=O)O [compound 502] ({Tridecanoyl-γGlu-AEEA-AEEA}-[dQ]R[αMeP][hArg][β3hV]SHKG[Oic][Nle][αMeP][Phe(4-Cl)]-OH) | – | – | –
76 | 77 | 3 | CCCCCCCCCCCCC(=O)N[C@@H](CCC(=O)NCCOCCOCC(=O)NCCOCCOCC(=O)N[C@@H](CCC(N)=O)C(=O)N[C@@H](CCCNC(=N)N)C(=O)N1CCC[C@H]1C(=O)N(C)[C@@H](CCCNC(=N)N)C(=O)N[C@@H](CC1CCCCC1)C(=O)N[C@@H](CO)C(=O)N[C@@H](Cc1c[nH]cn1)C(=O)N[C@@H](CCCCN)C(=O)NCC(=O)N1[C@H](C(=O)N[C@@H](CCCC)C(=O)N2CCC[C@@]2(C)C(=O)N[C@@H](Cc2ccc(Cl)cc2)C(=O)O)C[C@@H]2CCCC[C@@H]21)C(=O)O [compound 412] ({Tridecanoyl-γGlu-AEEA-AEEA}-QRP[NMeR][Cha]SHKG[Oic][Nle][αMeP][Phe(4-Cl)]-OH) | – | – | –
81 | 90 | 28 | CCCCCCCCCCCCC(=O)N[C@@H](CCC(=O)NCCOCCOCC(=O)NCCOCCOCC(=O)N[C@H](CCC(N)=O)C(=O)N[C@@H](CCCCNC(=N)N)C(=O)N1CCC[C@H]1C(=O)N[C@H](CCCNC(=N)N)C(=O)N[C@@H](CC1CCCCC1)C(=O)N[C@@H](CO)C(=O)N[C@@H](Cc1c[nH]cn1)C(=O)N[C@@H](CCCCN)C(=O)N[C@H](C(=O)N1[C@H](C(=O)N[C@@H](CCCC)C(=O)N2CCC[C@H]2C(=O)N[C@@H](Cc2ccc(Cl)cc2)C(=O)O)C[C@@H]2CCCC[C@@H]21)C(C)(C)C)C(=O)O [compound 371] ({Tridecanoyl-γGlu-AEEA-AEEA}-[dQ][hArg]P[dR][Cha]SHK[Tle][Oic][Nle]P[Phe(4-Cl)]-OH) | – | – | –
87 | 27 | 83 | CCCCCCCCCCCCC(=O)N[C@@H](CCC(=O)NCCOCCOCC(=O)NCCOCCOCC(=O)N[C@@H](CCC(N)=O)C(=O)N[C@@H](CCCNC(=N)N)C(=O)N1CCC[C@H]1C(=O)N(C)[C@@H](CCCNC(=N)N)C(=O)N[C@@H](CC(C)C)C(=O)N(CCO)CC(=O)N[C@@H](Cc1c[nH]cn1)C(=O)N[C@@H](CCCCN)C(=O)NCC(=O)N1CCC[C@H]1C(=O)N[C@@H](CCCC)C(=O)N1CCC[C@H]1C(=O)N[C@@H](Cc1ccc(Cl)cc1)C(=O)O)C(=O)O [compound 467] ({Tridecanoyl-γGlu-AEEA-AEEA}-QRP[NMeR]L[Gly(N-CH2CH2OH)]HKGP[Nle]P[Phe(4-Cl)]-OH) | – | – | –
4 | 65 | 99 | CCCCCCCCCCCCC(=O)N[C@@H](CCC(=O)NCCOCCOCC(=O)NCCOCCOCC(=O)N[C@H](CCC(N)=O)C(=O)N[C@@H](CCCNC(=N)N)C(=O)N1CCC[C@H]1C(=O)N(C)[C@@H](CCCNC(=N)N)C(=O)N[C@@H](CC1CCCCC1)C(=O)N[C@@H](CO)C(=O)N[C@@H](Cc1c[nH]cn1)C(=O)N[C@@H](CCCCN)C(=O)NCC(=O)N1[C@H](C(=O)N[C@@H](CCCC)C(=O)N2CCC[C@H]2C(=O)N[C@@H](Cc2ccc(Cl)cc2)C(=O)O)C[C@@H]2CCCC[C@@H]21)C(=O)O [compound 377] ({Tridecanoyl-γGlu-AEEA-AEEA}-[dQ]RP[NMeR][Cha]SHKG[Oic][Nle]P[Phe(4-Cl)]-OH) | – | – | –
7 | 85 | 2 | CCCCCCCCCCCCC(=O)N[C@@H](CCC(=O)NCCOCCOCC(=O)NCCOCCOCC(=O)N[C@H](CCC(N)=O)C(=O)N[C@@H](CCCNC(=N)N)C(=O)N1CCC[C@@]1(C)C(=O)N[C@@H](CCCCNC(=N)N)C(=O)N[C@H](CC(=O)N[C@@H](CO)C(=O)N[C@@H](Cc1c[nH]cn1)C(=O)N[C@@H](CCCCN)C(=O)NCC(=O)N1CCCC[C@H]1C(=O)N[C@@H](CCCC)C(=O)N1CCC[C@@]1(C)C(=O)N[C@@H](Cc1ccc(Cl)cc1)C(=O)O)C(C)C)C(=O)O [compound 503] ({Tridecanoyl-γGlu-AEEA-AEEA}-[dQ]R[αMeP][hArg][β3hV]SHKG[Pip][Nle][αMeP][Phe(4-Cl)]-OH) | – | – | –
64 | > 90 | 34 | CCCCCCCCCCCCCCCC(=O)N[C@@H](CCC(=O)NCCOCCOCC(=O)NCCOCCOCC(=O)N[C@H](CCC(N)=O)C(=O)N[C@@H](CCCNC(=N)N)C(=O)N1CCC[C@H]1C(=O)N(C)[C@@H](CCCNC(=N)N)C(=O)N[C@@H](CC1CCCCC1)C(=O)N[C@@H](CO)C(=O)N[C@@H](Cc1c[nH]cn1)C(=O)N[C@@H](CCCCN)C(=O)NCC(=O)N1[C@H](C(=O)N[C@@H](CCCC)C(=O)N2CCC(C(=O)N[C@@H](Cc3ccc(Cl)cc3)C(=O)O)CC2)C[C@@H]2CCCC[C@@H]21)C(=O)O [compound 587] ({Palmitoyl-γGlu-AEEA-AEEA}-[dQ]RP[NMeR][Cha]SHKG[Oic][Nle][Inp][Phe(4-Cl)]-OH) | – | – | –
– | < 1 | < 1 | CCCC[C@H](NC(=O)[C@@H]1CCCN1C(=O)CNC(=O)[C@H](CCCCN)NC(=O)[C@H](Cc1c[nH]cn1)NC(=O)[C@H](CO)NC(=O)[C@](C)(CC(C)C)NC(=O)[C@H](CCCCNC(=N)N)NC(=O)[C@]1(C)CCCN1C(=O)[C@H](CCCNC(=N)N)NC(=O)[C@H](CCC(N)=O)NC(C)=O)C(=O)N1CCC[C@H]1C(=O)N[C@@H](Cc1ccc(Cl)cc1)C(=O)O [compound 69] | – | – | –
